We go through 13 molecules from patent US10214531B2 (Institute for Drug Discovery, LLC, priority 2013, dated 2019).

As a reminder, the IC50 is the concentration that gives 50% inhibition.

Counter-ions that a name gives are not always drawn.

Sequence of recombinant human AMCase (Q9BZP6 22-476): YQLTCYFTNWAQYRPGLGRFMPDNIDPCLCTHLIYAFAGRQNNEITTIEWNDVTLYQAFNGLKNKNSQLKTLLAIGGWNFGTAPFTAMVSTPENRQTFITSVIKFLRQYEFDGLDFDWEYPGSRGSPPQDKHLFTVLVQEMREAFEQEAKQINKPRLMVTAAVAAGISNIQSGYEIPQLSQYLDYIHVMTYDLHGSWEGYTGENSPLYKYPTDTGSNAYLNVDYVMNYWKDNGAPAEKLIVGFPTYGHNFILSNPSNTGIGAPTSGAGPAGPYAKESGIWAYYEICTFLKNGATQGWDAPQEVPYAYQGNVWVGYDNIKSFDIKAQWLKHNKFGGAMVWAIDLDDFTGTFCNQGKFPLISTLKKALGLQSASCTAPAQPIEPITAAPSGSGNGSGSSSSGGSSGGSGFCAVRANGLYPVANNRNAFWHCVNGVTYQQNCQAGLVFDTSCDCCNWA

This assay addresses recombinant human AMCase (Homo sapiens, UniProt Q9BZP6). The experiment in a line: Human AMCase Activity Assay. It counts as biochemical. The note with it: recombinant hAMCase, 4-methylumbelliferyl chitobioside substrate, citrate buffer pH 5.2, 37° C., 60 minutes; read-out: Activity (IC50 value key). Summed up: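 Recombinant human enzyme with fluorogenic 4-methylumbelliferyl β-D-N,N′-diacetylchitobioside substrate in citrate buffer, pH 5.2, 60 min at 37 °C in the dark with shaking. Read-out is 4MU fluorescence at 460 nm.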
Regarding `CN(CCc1ccc(Br)cc1)C1CCN(c2nc(N)n[nH]2)CC1CCCO` (stereo not shown) [Example 246, 3-(1-(3-amino-1H-1,2,4-triazol-5-yl)-4-((4-bromophenethyl)(methyl)amino)piperidin-3-yl)propan-1-ol], the IC50 is less than 0.1 µM.

As to `CCCC1(NCCc2ccc(Br)cc2)CCN(c2nc(N)n[nH]2)CC1` [Example 247, 1-(3-amino-1H-1,2,4-triazol-5-yl)-N-(4-bromophenethyl)1-4-propyl piperidin-4-amine, dihydrochloride], the IC50 lay in the range of 1 to 10 µM.

As to `CN(C1CCN(c2nc(N)n[nH]2)CC1)S(=O)(=O)Cc1cccc(Cl)c1` [Example 248, N-(1-(3-amino-1H-1,2,4-triazol-5-yl)piperidin-4-yl)-2-(3-chlorophenyl)-N-methylmethanesulfonamide hydrochloride], the 50% inhibitory concentration (IC50) is greater than 100 µM.

In the case of `CN(CCc1ccc(Cl)cc1)C1CCN(c2nc(N)n[nH]2)CC1F` (stereo not shown) [Example 249, 1-(3-amino-1H-1,2,4-triazol-5-yl)-N-(4-chlorophenethyl)-3-fluoro-N-methylpiperidin-4-amine], the IC50 lay within 1 to 10 µM.

In the case of `CN(C1CCN(c2nc(N)n[nH]2)CC1)C1CCc2ccccc2C1` (stereo not shown) [Example 250, 1-(3-amino-1H-1,2,4-triazol-5-yl)-N-methyl-N-(1,2,3,4-tetrahydronaphthalen-2-yl)piperidin-4-amine dihydrochloride], the half-maximal inhibitory concentration (IC50) is greater than 100 µM.

As for `Nc1n[nH]c(N2CCC(NCCc3ccc(Cl)cc3)C(CCCO)C2)n1` (stereo not shown) [Example 251, 3-(1-(3-amino-1H-1,2,4-triazol-5-yl)-4-((4-chlorophenethyl)amino)piperidin-3-yl)propan-1-ol dihydrochloride], the half-maximal inhibitory concentration (IC50) was less than 0.1 µM.

With `Nc1n[nH]c(N2CCC(CNCc3ccc(Cl)c(Cl)c3)CC2)n1` [Example 252, 5-(4-(((3,4-dichlorobenzyl)amino)methyl)piperidin-1-yl)-1H-1,2,4-triazol-3-amine dihydrochloride], the IC50 was greater than 100 µM.

Consider `Nc1n[nH]c(N2CCC3C(CCCN3CCc3ccc(Br)cc3)C2)n1` (stereo not shown) [Example 253, 5-(1-(4-bromophenethyl)octahydro-1,6-naphthyridin-6(2H)-yl)-1H-1,2,4-triazol-3-amine dihydrochloride], for which the 50% inhibitory concentration (IC50) was less than 0.1 µM.

Consider `Nc1n[nH]c(N2CCC(CNCc3ccc(Br)cc3)CC2)n1` [Example 254, 5-(4-(((4-bromobenzyl)amino)methyl)piperidin-1-yl)-1H-1,2,4-triazol-3-amine], for which the half-maximal inhibitory concentration (IC50) was greater than 100 µM.

`Nc1n[nH]c(N2CCC(C(=O)NCc3cc(C(F)(F)F)cc(C(F)(F)F)c3)CC2)n1` [Example 255, 1-(3-amino-1H-1,2,4-triazol-5-yl)-N-(3,5-bis(trifluoromethyl)benzyl)piperidine-4-carboxamide]: the half-maximal inhibitory concentration (IC50) is greater than 100 µM.

As to `Nc1n[nH]c(N2CCC(CCCCO)(NS(=O)(=O)Cc3ccc(Br)cc3)CC2)n1` [Example 256, N-(1-(3-amino-1H-1,2,4-triazol-5-yl)-4-(4-hydroxybutyl)piperidin-4-yl)-1-(4-bromophenyl)methanesulfonamide], the concentration for half-maximal inhibition (IC50) was in the range of 1 to 10 µM.

For the molecule `Nc1n[nH]c(N2CCN(C(CCc3ccc(Br)cc3)Cc3ccccc3)CC2)n1` (stereo not shown) [Example 257, 5-(4-(4-(4-bromophenyl)-1-phenylbutan-2-yl)piperazin-1-yl)-1H-1,2,4-triazol-3-amine trifluoroacetate], the IC50 was 0.1 to 1 µM.

For `CC(C)(Oc1ccc(Cl)cc1)C(=O)N1CCN(c2nc(N)n[nH]2)CC1` [Example 258, 1-(4-(3-amino-1H-1,2,4-triazol-5-yl)piperazin-1-yl)-2-(4-chlorophenoxy)-2-methylpropan-1-one], the IC50 is greater than 100 µM.
